Among the data in patent US10336707B2, “Heterocyclic derivatives modulating activity of certain protein kinases” (EUDENDRON S.R.L., priority 2014, dated 2019) are IC50 and GI50 values, retold here.

One assay concerns the target T1, DDR2 T654M (Homo sapiens, UniProt Q16832, T654M).
T1 construct: either as full-length or enzymatically active fragments; purchased ProQinase GmbH (Freiburg, Germany)
T1 sequence (Q16832 22-855 T654M): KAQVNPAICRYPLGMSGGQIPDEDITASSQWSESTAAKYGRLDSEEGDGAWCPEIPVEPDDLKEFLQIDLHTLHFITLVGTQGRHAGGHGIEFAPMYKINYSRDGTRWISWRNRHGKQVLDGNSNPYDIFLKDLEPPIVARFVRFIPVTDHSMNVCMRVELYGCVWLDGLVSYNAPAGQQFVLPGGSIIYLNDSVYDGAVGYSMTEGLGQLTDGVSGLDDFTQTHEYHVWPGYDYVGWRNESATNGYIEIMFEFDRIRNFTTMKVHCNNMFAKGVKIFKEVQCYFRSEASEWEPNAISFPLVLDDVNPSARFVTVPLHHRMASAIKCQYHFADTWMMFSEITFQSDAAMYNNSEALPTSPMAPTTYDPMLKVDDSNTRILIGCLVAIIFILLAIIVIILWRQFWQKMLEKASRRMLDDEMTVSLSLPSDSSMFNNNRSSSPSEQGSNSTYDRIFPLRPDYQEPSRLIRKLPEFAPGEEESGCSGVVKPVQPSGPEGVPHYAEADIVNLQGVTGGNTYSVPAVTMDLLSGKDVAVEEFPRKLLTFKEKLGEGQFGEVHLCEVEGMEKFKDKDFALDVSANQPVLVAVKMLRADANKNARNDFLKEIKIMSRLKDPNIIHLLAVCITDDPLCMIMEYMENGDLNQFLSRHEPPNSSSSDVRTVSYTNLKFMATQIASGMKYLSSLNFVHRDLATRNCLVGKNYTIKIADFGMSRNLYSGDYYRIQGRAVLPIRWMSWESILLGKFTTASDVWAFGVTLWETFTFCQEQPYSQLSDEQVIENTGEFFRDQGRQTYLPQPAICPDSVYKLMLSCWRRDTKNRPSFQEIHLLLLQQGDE
The assay can be described thus: Radiometric protein kinase assay (33PanQuinase Activity Assay), DDR2 T654M. Type of assay: biochemical. The following applies: ATP 0.3 μM. Here is the method:
A proprietary radiometric protein kinase assay (33PanQuinase® Activity Assay) developed by ProQuinase GmbH (Freiburg, Germany) was used for measuring the kinase activity of selected protein kinases. All assays were performed in FlashPlates™ wells 96 Perkin Elmer (Boston, Mass., USA) in a reaction volume of 50 μl. The reaction mixture was obtained in 4 steps in the following order: • 1. 10 μl of a solution of non-radioactive ATP in water; • 2. 25 μl of assay buffer/[γ-^33P]-ATP mixture • 3. 5 μl of test sample in 10% DMSO • 4. 10 μl of enzyme/substrate mixture
All protein kinases provided by ProQinase were expressed in Sf9 insect cells or in E. coli as recombinant GST-fusion proteins or His-tagged proteins, either as full-length or enzymatically active fragments. […] Kinases from external vendors (CAR=Carna Biosciences Inc.; INV=Life Technologies (Invitrogen Corporation); MIL=Merck-Millipore (Millipore Corporation), were expressed, purified and quality-controlled by virtue of the vendors readings.
A stock solution of compound of formula (I) was diluted to 5×10-04M/100% DMSO. […] Incorporation of 33Pi (counting of “cpm”) was determined with a microplate scintillation counter (Microbeta, Wallac). […]
Based on each 10 corresponding residual activities, IC50 values were calculated using Prism 5.04 for Windows (Graphpad, San Diego, Calif.). […]

A further assay addresses T2, BaF3 NPM-ALK WT (Homo sapiens, UniProt Q9UM73).
T2 construct: fused on or other part: P06748 (Nucleophosmin)
Description: Tritiated thymidine uptake cell proliferation assay, BaF3 NPM-ALK WT. The class given is cell-based, murine. The settings on record: cell line BaF3 NPM-ALK WT; read-out: IC50 of cellular proliferation, BaF3 NPM-ALK WT. On the procedure:
Method: Tritiated Thymidine Uptake Cell Proliferation Assay
The following procedure was used with parent untransformed BaF3 cells, BaF3 cells transformed with the oncogenic fusion protein NPM/ALK, NPM/ALK positive SUDHL-1 cells, NPM/ALK positive SUPM2, ALK-negative HL60 cells, NPM/ALK positive KARPAS-299 cells. The parent untransformed BaF3 cells or Alk-negative HL60 cells are used as controls. Cells were seeded in U-bottomed 96-well plates at 10000 cells/well in a volume of 100 μl in supplemented medium. In the case of the parent untransformed BaF3 cells, the medium was supplemented with IL-3. Serial dilutions of inhibitors were added to the appropriate wells and volumes adjusted to 200 μl. Controls were treated with the equivalent volume of vehicle, DMSO, alone. Plates were incubated at 37° C. for 72 h. 3[H]-thymidine (1 μCi/well) was added for the last 16 h of incubation. Cells were harvested on to paper filters and 3[H]-thymidine incorporation was measured using a scintillation counter (1430 MicroBeta, Wallac, Turku, Finland). The 50% inhibitory concentration (IC50) was defined as the concentration of inhibitor, expressed in nanomolar units, that gave a 50% decrease in 3[H]-thymidine uptake compared with controls.
In Table 4 are reported the IC50 of cellular proliferation assays of example 3 versus ALK positive, mutated and negative cell lines.

T2 sequence (Q9UM73 whole entry, change not shown, the tested form may be a part): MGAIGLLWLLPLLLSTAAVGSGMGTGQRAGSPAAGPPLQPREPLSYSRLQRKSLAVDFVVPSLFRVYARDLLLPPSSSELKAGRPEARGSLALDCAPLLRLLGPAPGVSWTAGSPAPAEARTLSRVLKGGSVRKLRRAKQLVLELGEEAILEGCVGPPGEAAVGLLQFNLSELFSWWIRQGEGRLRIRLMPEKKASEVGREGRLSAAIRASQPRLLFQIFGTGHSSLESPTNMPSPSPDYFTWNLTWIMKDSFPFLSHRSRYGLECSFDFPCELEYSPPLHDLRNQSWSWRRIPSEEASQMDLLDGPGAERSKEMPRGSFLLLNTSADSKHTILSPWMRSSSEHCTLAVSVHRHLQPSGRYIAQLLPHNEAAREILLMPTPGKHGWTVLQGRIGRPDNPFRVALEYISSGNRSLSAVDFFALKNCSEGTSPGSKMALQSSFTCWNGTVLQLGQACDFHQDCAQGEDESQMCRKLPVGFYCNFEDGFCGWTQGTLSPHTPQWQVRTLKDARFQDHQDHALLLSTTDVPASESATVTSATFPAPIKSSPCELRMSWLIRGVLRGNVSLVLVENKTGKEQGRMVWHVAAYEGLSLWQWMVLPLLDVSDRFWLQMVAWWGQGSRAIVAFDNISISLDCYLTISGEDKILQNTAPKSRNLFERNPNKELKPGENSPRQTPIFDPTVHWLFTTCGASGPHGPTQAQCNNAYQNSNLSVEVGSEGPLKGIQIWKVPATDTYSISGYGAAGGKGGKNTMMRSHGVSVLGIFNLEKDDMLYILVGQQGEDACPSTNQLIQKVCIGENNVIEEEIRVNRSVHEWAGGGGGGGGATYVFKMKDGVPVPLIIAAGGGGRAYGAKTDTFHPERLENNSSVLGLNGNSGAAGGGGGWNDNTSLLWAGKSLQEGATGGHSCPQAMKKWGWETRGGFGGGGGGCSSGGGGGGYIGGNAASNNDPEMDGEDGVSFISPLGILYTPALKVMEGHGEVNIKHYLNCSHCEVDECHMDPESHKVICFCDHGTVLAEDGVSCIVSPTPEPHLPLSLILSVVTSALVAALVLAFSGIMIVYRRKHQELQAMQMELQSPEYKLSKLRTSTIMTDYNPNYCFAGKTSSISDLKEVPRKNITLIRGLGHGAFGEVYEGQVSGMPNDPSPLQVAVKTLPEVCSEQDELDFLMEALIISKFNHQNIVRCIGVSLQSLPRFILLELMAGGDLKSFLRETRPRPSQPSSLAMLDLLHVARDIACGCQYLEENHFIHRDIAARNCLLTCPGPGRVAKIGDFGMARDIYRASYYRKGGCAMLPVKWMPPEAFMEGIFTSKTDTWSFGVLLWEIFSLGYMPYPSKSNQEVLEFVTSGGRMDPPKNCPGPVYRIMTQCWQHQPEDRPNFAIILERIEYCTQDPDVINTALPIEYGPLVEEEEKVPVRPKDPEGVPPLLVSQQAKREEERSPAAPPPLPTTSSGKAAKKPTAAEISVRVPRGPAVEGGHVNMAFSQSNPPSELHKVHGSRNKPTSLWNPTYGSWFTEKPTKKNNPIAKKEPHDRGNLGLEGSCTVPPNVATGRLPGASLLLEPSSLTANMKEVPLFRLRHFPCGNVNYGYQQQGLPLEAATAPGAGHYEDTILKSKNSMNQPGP

`CN1CCN(c2ccc(C(=O)Nc3n[nH]c4cc(-c5ccc(O)cc5)c(Cc5cc(F)cc(F)c5)cc34)c(NC3CCOCC3)c2)CC1` [Example 3, N-[5-[(3,5-difluorophenyl)methyl]-6-(4-hydroxyphenyl)-1H-indazol-3-yl]-4-(4-methylpiperazin-1-yl)-2-(tetrahydropyran-4-ylamino)benzamide] yielded a half-inhibitory concentration (IC50) on DDR2 T654M of 84 nM. Besides, on BaF3 NPM-ALK WT, the GI50 was found to be 18 nM.

For orientation: IC50 means the point on the concentration scale where inhibition reaches its midpoint. Read a high IC50 as weaker potency.
